From PubChem BioAssay (NCI)
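Dose response: 5 concentrations. Exposure: 48 h. Format: 96-well plates. Endpoint: linear interpolation; highest concentration if not reached. Here, GI50 denotes the concentration required for 50% inhibition of growth. The concentration for full growth arrest is given as TGI.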

Columns and labels:
Assay in all cases: NCI-60 cell line screen, 48 h
NCI-H23 lung = test system: NCI-H23 lung
OVCAR-3 ovarian = test system: OVCAR-3 ovarian
SK-OV-3 ovarian = test system: SK-OV-3 ovarian
IGROV1 ovarian = test system: IGROV1 ovarian
BT-549 breast = test system: BT-549 breast
DU-145 prostate = test system: DU-145 prostate
NCI-H226 lung = test system: NCI-H226 lung
HS 578T breast = test system: HS 578T breast
UACC-257 melanoma = test system: UACC-257 melanoma
UO-31 renal = test system: UO-31 renal
HT29 colon = test system: HT29 colon
HOP-92 NSCLC = test system: HOP-92 NSCLC
SK-MEL-2 melanoma = test system: SK-MEL-2 melanoma
SR leukemia = test system: SR leukemia
MDA-MB-231 breast = test system: MDA-MB-231 breast
NCI-H460 lung = test system: NCI-H460 lung
SF-539 CNS = test system: SF-539 CNS
SNB-19 CNS = test system: SNB-19 CNS
CAKI-1 renal = test system: CAKI-1 renal
HCC-2998 colon = test system: HCC-2998 colon
MOLT-4 leukemia = test system: MOLT-4 leukemia
ACHN renal = test system: ACHN renal
HOP-62 NSCLC = test system: HOP-62 NSCLC
SW-620 colon = test system: SW-620 colon
TK-10 renal = test system: TK-10 renal
UACC-62 melanoma = test system: UACC-62 melanoma
EKVX NSCLC = test system: EKVX NSCLC
KM12 colon = test system: KM12 colon
OVCAR-4 ovarian = test system: OVCAR-4 ovarian
U251 CNS = test system: U251 CNS
A549 NSCLC = test system: A549 NSCLC
SK-MEL-28 melanoma = test system: SK-MEL-28 melanoma
A498 renal = test system: A498 renal
RPMI-8226 leukemia = test system: RPMI-8226 leukemia
MALME-3M melanoma = test system: MALME-3M melanoma
PC-3 prostate = test system: PC-3 prostate
SF-295 CNS = test system: SF-295 CNS
OVCAR-8 ovarian = test system: OVCAR-8 ovarian
NCI/ADR-RES ovarian = test system: NCI/ADR-RES ovarian
K-562 leukemia = test system: K-562 leukemia
HL-60(TB) leukemia = test system: HL-60(TB) leukemia
HCT-15 colon = test system: HCT-15 colon
MCF7 breast = test system: MCF7 breast
LOX IMVI melanoma = test system: LOX IMVI melanoma
HCT-116 colon = test system: HCT-116 colon
SK-MEL-5 melanoma = test system: SK-MEL-5 melanoma
NCI-H522 lung = test system: NCI-H522 lung
CCRF-CEM leukemia = test system: CCRF-CEM leukemia
786-0 renal = test system: 786-0 renal
RXF 393 renal = test system: RXF 393 renal
T-47D breast = test system: T-47D breast

CN(C)c1ccc(/C=N/Nc2nc(N/N=C/c3ccc(N(C)C)cc3)nc(N3CCCCC3)n2)cc1
GI50 (NCI-H23 lung): 3.49 µM | TGI (NCI-H23 lung): > 100 µM | GI50 (OVCAR-3 ovarian): 2.28 µM | TGI (OVCAR-3 ovarian): 5.03 µM | GI50 (SK-OV-3 ovarian): 2.17 µM | TGI (SK-OV-3 ovarian): 4.88 µM | GI50 (IGROV1 ovarian): 2.96 µM | TGI (IGROV1 ovarian): > 100 µM | GI50 (BT-549 breast): 15.5 µM | TGI (BT-549 breast): 58.6 µM | GI50 (DU-145 prostate): 3.92 µM | TGI (DU-145 prostate): > 100 µM | GI50 (NCI-H226 lung): 2.19 µM | TGI (NCI-H226 lung): 5.64 µM | GI50 (HS 578T breast): 2.09 µM | TGI (HS 578T breast): 5.57 µM | GI50 (UACC-257 melanoma): 1.83 µM | TGI (UACC-257 melanoma): 3.67 µM | GI50 (UO-31 renal): 1.72 µM | TGI (UO-31 renal): 3.7 µM | GI50 (HT29 colon): 1.76 µM | TGI (HT29 colon): 3.36 µM | GI50 (HOP-92 NSCLC): 1.47 µM | TGI (HOP-92 NSCLC): 3.25 µM | GI50 (SK-MEL-2 melanoma): 1.99 µM | TGI (SK-MEL-2 melanoma): 3.72 µM | GI50 (SR leukemia): 0.369 µM | TGI (SR leukemia): > 100 µM | GI50 (MDA-MB-231 breast): 1.8 µM | TGI (MDA-MB-231 breast): 3.4 µM | GI50 (NCI-H460 lung): 3.21 µM | TGI (NCI-H460 lung): > 100 µM | GI50 (SF-539 CNS): 1.99 µM | TGI (SF-539 CNS): 3.97 µM | GI50 (SNB-19 CNS): 3.33 µM | TGI (SNB-19 CNS): > 100 µM | GI50 (CAKI-1 renal): 2.08 µM | TGI (CAKI-1 renal): 5.02 µM | GI50 (HCC-2998 colon): 2.4 µM | TGI (HCC-2998 colon): 6.67 µM | GI50 (MOLT-4 leukemia): 2.87 µM | TGI (MOLT-4 leukemia): > 100 µM | GI50 (ACHN renal): 2.68 µM | TGI (ACHN renal): 7.68 µM | GI50 (HOP-62 NSCLC): 2.19 µM | TGI (HOP-62 NSCLC): 5.05 µM | GI50 (SW-620 colon): 3.17 µM | TGI (SW-620 colon): > 100 µM | GI50 (TK-10 renal): 2.54 µM | TGI (TK-10 renal): 7.28 µM | GI50 (UACC-62 melanoma): 1.84 µM | TGI (UACC-62 melanoma): 3.78 µM | GI50 (EKVX NSCLC): 3.13 µM | TGI (EKVX NSCLC): > 100 µM | GI50 (KM12 colon): 2.84 µM | TGI (KM12 colon): 8.49 µM | GI50 (OVCAR-4 ovarian): 5.03 µM | TGI (OVCAR-4 ovarian): > 100 µM | GI50 (U251 CNS): 2.88 µM | TGI (U251 CNS): 14.3 µM | GI50 (A549 NSCLC): 2.99 µM | TGI (A549 NSCLC): > 100 µM | GI50 (SK-MEL-28 melanoma): 2 µM | TGI (SK-MEL-28 melanoma): 4.35 µM | GI50 (A498 renal): 1.58 µM | TGI (A498 renal): 3.51 µM | GI50 (RPMI-8226 leukemia): 1.92 µM | TGI (RPMI-8226 leukemia): 5.1 µM | GI50 (MALME-3M melanoma): 1.86 µM | TGI (MALME-3M melanoma): 3.4 µM | GI50 (PC-3 prostate): 2.57 µM | TGI (PC-3 prostate): 7.91 µM | GI50 (SF-295 CNS): 1.96 µM | TGI (SF-295 CNS): 3.79 µM | GI50 (OVCAR-8 ovarian): 3.21 µM | TGI (OVCAR-8 ovarian): > 100 µM | GI50 (NCI/ADR-RES ovarian): 3.19 µM | TGI (NCI/ADR-RES ovarian): 17 µM | GI50 (K-562 leukemia): 0.895 µM | TGI (K-562 leukemia): > 100 µM | GI50 (HL-60(TB) leukemia): 2.2 µM | TGI (HL-60(TB) leukemia): 6.71 µM | GI50 (HCT-15 colon): 1.87 µM | TGI (HCT-15 colon): 4.62 µM | GI50 (MCF7 breast): 2.86 µM | TGI (MCF7 breast): > 100 µM | GI50 (LOX IMVI melanoma): 1.61 µM | TGI (LOX IMVI melanoma): 3.19 µM | GI50 (HCT-116 colon): 1.64 µM | TGI (HCT-116 colon): 3.75 µM | GI50 (SK-MEL-5 melanoma): 1.73 µM | TGI (SK-MEL-5 melanoma): 3.15 µM | GI50 (NCI-H522 lung): 2.06 µM | TGI (NCI-H522 lung): 4.56 µM | GI50 (CCRF-CEM leukemia): 1.21 µM | TGI (CCRF-CEM leukemia): > 100 µM | GI50 (786-0 renal): 1.7 µM | TGI (786-0 renal): 3.62 µM | GI50 (RXF 393 renal): 2.12 µM | TGI (RXF 393 renal): 6.12 µM | GI50 (T-47D breast): 2.18 µM | TGI (T-47D breast): 5.54 µM
